Assay results published in ChEMBL document CHEMBL1201861, “Genomics of Drug Sensitity in Cancer screening data, Wellcome Trust Sanger Institute”.

What follows are molecules tested on DMS-273 (assay: cells). Conditions: Homo sapiens.
Format: functional, cell-based
Description: SANGER: Inhibition of human DMS-273 cell growth in a cell viability assay.
`NC(=O)Nc1cc(-c2cccc(F)c2)sc1C(=O)N[C@H]1CCCNC1` [AZD-7762] was tested, and the IC50 was 755 nM.

The molecules below were run on FTC-133 (assay: cells). Conditions: Homo sapiens.
Format: functional, cell-based
With `NC(=O)Nc1cc(-c2cccc(F)c2)sc1C(=O)N[C@H]1CCCNC1` [AZD-7762] the IC50 was 303 nM.

Each molecule was assayed on G-402 (assay: cells). Conditions: Homo sapiens.
Format: functional, cell-based
Description: SANGER: Inhibition of human G-402 cell growth in a cell viability assay.
With `NC(=O)Nc1cc(-c2cccc(F)c2)sc1C(=O)N[C@H]1CCCNC1` [AZD-7762] the IC50 was 64.6 nM.

Each molecule was assayed on GCT (assay: cells). Conditions: Homo sapiens.
Format: functional, cell-based
Description: SANGER: Inhibition of human GCT cell growth in a cell viability assay.
`NC(=O)Nc1cc(-c2cccc(F)c2)sc1C(=O)N[C@H]1CCCNC1` [AZD-7762] gave an IC50 of 649 nM.

The molecules below were run on HCC1937 (assay: cells). Conditions: Homo sapiens.
Format: functional, cell-based
Description: SANGER: Inhibition of human HCC1937 cell growth in a cell viability assay.
For `NC(=O)Nc1cc(-c2cccc(F)c2)sc1C(=O)N[C@H]1CCCNC1` [AZD-7762], the IC50 was 706 nM.

Each molecule was assayed on HCC 2998 (assay: cells). Conditions: Homo sapiens.
Format: functional, cell-based
Description: SANGER: Inhibition of human HCC2998 cell growth in a cell viability assay.
With `NC(=O)Nc1cc(-c2cccc(F)c2)sc1C(=O)N[C@H]1CCCNC1` [AZD-7762] the IC50 was 317 nM.

What follows are molecules tested on HCT-116 (assay: cells). Conditions: Homo sapiens.
Format: functional, cell-based
Description: SANGER: Inhibition of human HCT-116 cell growth in a cell viability assay.
In the case of `NC(=O)Nc1cc(-c2cccc(F)c2)sc1C(=O)N[C@H]1CCCNC1` [AZD-7762], the IC50 is reported as 1420 nM.

The molecules below were run on HSC-2 (assay: cells). Conditions: Homo sapiens.
Format: functional, cell-based
Description: SANGER: Inhibition of human HSC-2 cell growth in a cell viability assay.
With `NC(=O)Nc1cc(-c2cccc(F)c2)sc1C(=O)N[C@H]1CCCNC1` [AZD-7762] the IC50 was 873 nM.

The molecules below were run on HT-29 (assay: cells). Conditions: Homo sapiens.
Format: functional, cell-based
Description: SANGER: Inhibition of human HT-29 cell growth in a cell viability assay.
In the case of `NC(=O)Nc1cc(-c2cccc(F)c2)sc1C(=O)N[C@H]1CCCNC1` [AZD-7762], the IC50 is reported as 894 nM.

Each molecule was assayed on HuTu80 (assay: cells). Conditions: Homo sapiens, HuTu80.
Format: functional, cell-based, Homo sapiens, HUTU-80
Description: SANGER: Inhibition of human HUTU-80 cell growth in a cell viability assay.
Work on `NC(=O)Nc1cc(-c2cccc(F)c2)sc1C(=O)N[C@H]1CCCNC1` [AZD-7762] yielded an IC50 greater than 2000 nM.

The molecules below were run on JEG-3 (assay: cells). Conditions: Homo sapiens.
Format: functional, cell-based
Description: SANGER: Inhibition of human JEG-3 cell growth in a cell viability assay.
For `NC(=O)Nc1cc(-c2cccc(F)c2)sc1C(=O)N[C@H]1CCCNC1` [AZD-7762], the IC50 was greater than 2000 nM.

The molecules below were run on KMOE-2 (assay: cells). Conditions: Homo sapiens, KMOE-2.
Format: functional, cell-based, Homo sapiens
Description: SANGER: Inhibition of human KMOE-2 cell growth in a cell viability assay.
Work on `NC(=O)Nc1cc(-c2cccc(F)c2)sc1C(=O)N[C@H]1CCCNC1` [AZD-7762] yielded an IC50 of 1110 nM.

These molecules were tested on KYSE-140 (assay: cells). Conditions: Homo sapiens.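 Also: cell viability assay measuring growth inhibition in human KYSE-140 cells.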
Format: functional, cell-based
Description: SANGER: Inhibition of human KYSE-140 cell growth in a cell viability assay.
With `NC(=O)Nc1cc(-c2cccc(F)c2)sc1C(=O)N[C@H]1CCCNC1` [AZD-7762] the IC50 was 130 nM.

These molecules were tested on KYSE-150 cell line (assay: cells). Conditions: Homo sapiens.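 Also: growth inhibition of human KYSE-150 cells, read out with a cell viability assay.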
Format: functional, cell-based
Description: SANGER: Inhibition of human KYSE-150 cell growth in a cell viability assay.
`NC(=O)Nc1cc(-c2cccc(F)c2)sc1C(=O)N[C@H]1CCCNC1` [AZD-7762] showed an IC50 greater than 2000 nM.

The molecules below were run on KYSE-510 (assay: cells). Conditions: Homo sapiens.
Format: functional, cell-based
Description: SANGER: Inhibition of human KYSE-510 cell growth in a cell viability assay.
`NC(=O)Nc1cc(-c2cccc(F)c2)sc1C(=O)N[C@H]1CCCNC1` [AZD-7762] showed an IC50 of 1580 nM.

These molecules were tested on LB373-MEL-D (assay: cells). Conditions: Homo sapiens, LB373-MEL-D.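 Also: growth inhibition of the cell line, read out in a cell viability assay.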
Format: functional, cell-based, Homo sapiens
Description: SANGER: Inhibition of human LB373-MEL-D cell growth in a cell viability assay.
In the case of `NC(=O)Nc1cc(-c2cccc(F)c2)sc1C(=O)N[C@H]1CCCNC1` [AZD-7762], the IC50 is reported as greater than 2000 nM.

Each molecule was assayed on LN-405 (assay: cells). Conditions: Homo sapiens.
Format: functional, cell-based
Description: SANGER: Inhibition of human LN-405 cell growth in a cell viability assay.
In the case of `NC(=O)Nc1cc(-c2cccc(F)c2)sc1C(=O)N[C@H]1CCCNC1` [AZD-7762], the IC50 is reported as 877 nM.

Each molecule was assayed on ME-180 (assay: cells). Conditions: Homo sapiens.
Format: functional, cell-based
Description: SANGER: Inhibition of human ME-180 cell growth in a cell viability assay.
Work on `NC(=O)Nc1cc(-c2cccc(F)c2)sc1C(=O)N[C@H]1CCCNC1` [AZD-7762] yielded an IC50 of 1720 nM.

The molecules below were run on MKN-7 (assay: cells). Conditions: Homo sapiens.
Format: functional, cell-based
Description: SANGER: Inhibition of human MKN7 cell growth in a cell viability assay.
For `NC(=O)Nc1cc(-c2cccc(F)c2)sc1C(=O)N[C@H]1CCCNC1` [AZD-7762], the IC50 was 1210 nM.

What follows are molecules tested on NCI-H1651 (assay: cells). Conditions: Homo sapiens.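 Also: Read-out is a cell viability assay, with IC50 expressing inhibition of NCI-H1651 cell growth.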
Format: functional, cell-based
Description: SANGER: Inhibition of human NCI-H1651 cell growth in a cell viability assay.
For `NC(=O)Nc1cc(-c2cccc(F)c2)sc1C(=O)N[C@H]1CCCNC1` [AZD-7762], the IC50 was 1090 nM.

Each molecule was assayed on NCI-H1793 (assay: cells). Conditions: Homo sapiens.
Format: functional, cell-based
Description: SANGER: Inhibition of human NCI-H1793 cell growth in a cell viability assay.
Work on `NC(=O)Nc1cc(-c2cccc(F)c2)sc1C(=O)N[C@H]1CCCNC1` [AZD-7762] yielded an IC50 of 1610 nM.

These molecules were tested on NCI-H2030 (assay: cells). Conditions: Homo sapiens.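 Also: growth inhibition of human NCI-H2030 cells, read out by a cell viability assay.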
Format: functional, cell-based
Description: SANGER: Inhibition of human NCI-H2030 cell growth in a cell viability assay.
Molecule `NC(=O)Nc1cc(-c2cccc(F)c2)sc1C(=O)N[C@H]1CCCNC1` [AZD-7762] has an IC50 of 1020 nM.

The molecules below were run on NCI-H2122 (assay: cells). Conditions: Homo sapiens.
Format: functional, cell-based
Description: SANGER: Inhibition of human NCI-H2122 cell growth in a cell viability assay.
For `NC(=O)Nc1cc(-c2cccc(F)c2)sc1C(=O)N[C@H]1CCCNC1` [AZD-7762], the IC50 was 123 nM.

What follows are molecules tested on NCI-H2452 (assay: cells). Conditions: Homo sapiens.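 Also: growth inhibition of NCI-H2452 cells, read out with a cell viability assay.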
Format: functional, cell-based
Description: SANGER: Inhibition of human NCI-H2452 cell growth in a cell viability assay.
`NC(=O)Nc1cc(-c2cccc(F)c2)sc1C(=O)N[C@H]1CCCNC1` [AZD-7762] was tested, and the IC50 was 936 nM.

These molecules were tested on NCI-H596 (assay: cells). Conditions: Homo sapiens.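 Also: growth inhibition of NCI-H596 cells, read out with a cell viability assay.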
Format: functional, cell-based
Description: SANGER: Inhibition of human NCI-H596 cell growth in a cell viability assay.
`NC(=O)Nc1cc(-c2cccc(F)c2)sc1C(=O)N[C@H]1CCCNC1` [AZD-7762] showed an IC50 greater than 2000 nM.

These molecules were tested on NCI-H661 (assay: cells). Conditions: Homo sapiens.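 Also: cell viability assay read-out, IC50 being the concentration that inhibits growth of the cells by half.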
Format: functional, cell-based
Description: SANGER: Inhibition of human NCI-H661 cell growth in a cell viability assay.
Molecule `NC(=O)Nc1cc(-c2cccc(F)c2)sc1C(=O)N[C@H]1CCCNC1` [AZD-7762] has an IC50 of 637 nM.

These molecules were tested on PA-1 (assay: cells). Conditions: Homo sapiens.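 Also: IC50 for suppression of PA-1 cell proliferation, determined with a cell viability read-out.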
Format: functional, cell-based
Description: SANGER: Inhibition of human PA-1 cell growth in a cell viability assay.
Molecule `NC(=O)Nc1cc(-c2cccc(F)c2)sc1C(=O)N[C@H]1CCCNC1` [AZD-7762] has an IC50 of 750 nM.

Each molecule was assayed on SK-HEP1 (assay: cells). Conditions: Homo sapiens.
Format: functional, cell-based, SK-HEP-1
Description: SANGER: Inhibition of human SK-HEP-1 cell growth in a cell viability assay.
In the case of `NC(=O)Nc1cc(-c2cccc(F)c2)sc1C(=O)N[C@H]1CCCNC1` [AZD-7762], the IC50 is reported as greater than 2000 nM.

Each molecule was assayed on SK-MEL-24 (assay: cells). Conditions: Homo sapiens.
Format: functional, cell-based
Description: SANGER: Inhibition of human SK-MEL-24 cell growth in a cell viability assay.
`NC(=O)Nc1cc(-c2cccc(F)c2)sc1C(=O)N[C@H]1CCCNC1` [AZD-7762] gave an IC50 greater than 2000 nM.

These molecules were tested on SW13 (assay: cells). Conditions: Homo sapiens.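 Also: IC50 is inhibition of SW13 cell growth, read out with a cell viability assay.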
Format: functional, cell-based
Description: SANGER: Inhibition of human SW13 cell growth in a cell viability assay.
Molecule `NC(=O)Nc1cc(-c2cccc(F)c2)sc1C(=O)N[C@H]1CCCNC1` [AZD-7762] has an IC50 greater than 2000 nM.

Each molecule was assayed on SW1573 (assay: cells). Conditions: Homo sapiens.
Format: functional, cell-based
Description: SANGER: Inhibition of human SW1573 cell growth in a cell viability assay.
In the case of `NC(=O)Nc1cc(-c2cccc(F)c2)sc1C(=O)N[C@H]1CCCNC1` [AZD-7762], the IC50 is reported as 942 nM.

The molecules below were run on SW1783 (assay: cells). Conditions: Homo sapiens.
Format: functional, cell-based
Description: SANGER: Inhibition of human SW1783 cell growth in a cell viability assay.
Molecule `NC(=O)Nc1cc(-c2cccc(F)c2)sc1C(=O)N[C@H]1CCCNC1` [AZD-7762] has an IC50 of 933 nM.

The molecules below were run on 786-0 (assay: cells). Conditions: Homo sapiens.
Format: functional, cell-based
Description: SANGER: Inhibition of human 786-0 cell growth in a cell viability assay.
Molecule `NC(=O)Nc1cc(-c2cccc(F)c2)sc1C(=O)N[C@H]1CCCNC1` [AZD-7762] has an IC50 of 388 nM.

What follows are molecules tested on A2780 (assay: cells). Conditions: Homo sapiens.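 Also: growth inhibition of A2780 cells, read out with a cell viability assay.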
Format: functional, cell-based
Description: SANGER: Inhibition of human A2780 cell growth in a cell viability assay.
With `NC(=O)Nc1cc(-c2cccc(F)c2)sc1C(=O)N[C@H]1CCCNC1` [AZD-7762] the IC50 was 432 nM.

The molecules below were run on A-375 (assay: cells). Conditions: Homo sapiens.
Format: functional, cell-based
Description: SANGER: Inhibition of human A375 cell growth in a cell viability assay.
For `NC(=O)Nc1cc(-c2cccc(F)c2)sc1C(=O)N[C@H]1CCCNC1` [AZD-7762], the IC50 was 499 nM.

These molecules were tested on A673 (assay: cells). Conditions: Homo sapiens.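 Also: growth inhibition of human A673 cells, read out through a cell viability assay.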
Format: functional, cell-based
Description: SANGER: Inhibition of human A673 cell growth in a cell viability assay.
Work on `NC(=O)Nc1cc(-c2cccc(F)c2)sc1C(=O)N[C@H]1CCCNC1` [AZD-7762] yielded an IC50 of 865 nM.

These molecules were tested on ABC-1 (assay: cells). Conditions: Homo sapiens.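 Also: growth inhibition of human ABC-1 cells, read out by a cell viability assay.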
Format: functional, cell-based
Description: SANGER: Inhibition of human ABC-1 cell growth in a cell viability assay.
`NC(=O)Nc1cc(-c2cccc(F)c2)sc1C(=O)N[C@H]1CCCNC1` [AZD-7762] was tested, and the IC50 was 261 nM.

The molecules below were run on BPH-1 (assay: cells). Conditions: Homo sapiens.
Format: functional, cell-based
Description: SANGER: Inhibition of human BPH-1 cell growth in a cell viability assay.
`NC(=O)Nc1cc(-c2cccc(F)c2)sc1C(=O)N[C@H]1CCCNC1` [AZD-7762] was tested, and the IC50 was greater than 2000 nM.

These molecules were tested on BXPC-3 (assay: cells). Conditions: Homo sapiens.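 Also: growth inhibition of human BxPC-3 cells, read out by a cell viability assay.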
Format: functional, cell-based
Description: SANGER: Inhibition of human BxPC-3 cell growth in a cell viability assay.
`NC(=O)Nc1cc(-c2cccc(F)c2)sc1C(=O)N[C@H]1CCCNC1` [AZD-7762] was tested, and the IC50 was 1310 nM.

Each molecule was assayed on C-33-A (assay: cells). Conditions: Homo sapiens.
Format: functional, cell-based
Description: SANGER: Inhibition of human C-33-A cell growth in a cell viability assay.
Molecule `NC(=O)Nc1cc(-c2cccc(F)c2)sc1C(=O)N[C@H]1CCCNC1` [AZD-7762] has an IC50 of 862 nM.

These molecules were tested on CAL-33 (assay: cells). Conditions: Homo sapiens.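 Also: growth inhibition of CAL-33 cells, read out with a cell viability assay.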
Format: functional, cell-based
Description: SANGER: Inhibition of human CAL-33 cell growth in a cell viability assay.
`NC(=O)Nc1cc(-c2cccc(F)c2)sc1C(=O)N[C@H]1CCCNC1` [AZD-7762] was tested, and the IC50 was 984 nM.

Each molecule was assayed on CAL-51 (assay: cells). Conditions: Homo sapiens.
Format: functional, cell-based
Description: SANGER: Inhibition of human CAL-51 cell growth in a cell viability assay.
For `NC(=O)Nc1cc(-c2cccc(F)c2)sc1C(=O)N[C@H]1CCCNC1` [AZD-7762], the IC50 was 514 nM.

These molecules were tested on CAL-54 (assay: cells). Conditions: Homo sapiens.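 Also: growth inhibition of CAL-54 cells, read out by a viability measurement.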
Format: functional, cell-based
Description: SANGER: Inhibition of human CAL-54 cell growth in a cell viability assay.
With `NC(=O)Nc1cc(-c2cccc(F)c2)sc1C(=O)N[C@H]1CCCNC1` [AZD-7762] the IC50 was 740 nM.

The molecules below were run on CAL-85-1 (assay: cells). Conditions: Homo sapiens.
Format: functional, cell-based
Description: SANGER: Inhibition of human CAL-85-1 cell growth in a cell viability assay.
`NC(=O)Nc1cc(-c2cccc(F)c2)sc1C(=O)N[C@H]1CCCNC1` [AZD-7762] showed an IC50 greater than 2000 nM.

Each molecule was assayed on UMUC3 (assay: cells). Conditions: Homo sapiens.
Format: functional, cell-based
Description: SANGER: Inhibition of human UM-UC-3 cell growth in a cell viability assay.
`NC(=O)Nc1cc(-c2cccc(F)c2)sc1C(=O)N[C@H]1CCCNC1` [AZD-7762] was tested, and the IC50 was 903 nM.

What follows are molecules tested on VM-CUB-1 (assay: cells). Conditions: Homo sapiens.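 Also: cell viability assay measuring growth inhibition of the human VM-CUB-1 cell line.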
Format: functional, cell-based
Description: SANGER: Inhibition of human VM-CUB-1 cell growth in a cell viability assay.
Work on `NC(=O)Nc1cc(-c2cccc(F)c2)sc1C(=O)N[C@H]1CCCNC1` [AZD-7762] yielded an IC50 of 619 nM.

What follows are molecules tested on YKG-1 (assay: cells). Conditions: Homo sapiens.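 Also: cell growth inhibition, read out with a viability assay.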
Format: functional, cell-based
Description: SANGER: Inhibition of human YKG-1 cell growth in a cell viability assay.
Work on `NC(=O)Nc1cc(-c2cccc(F)c2)sc1C(=O)N[C@H]1CCCNC1` [AZD-7762] yielded an IC50 of 1580 nM.
